Reference: ChEMBL document CHEMBL4028802, “DILIrank: the largest reference drug list ranked by the risk for developing drug-induced liver injury in humans” (Drug Discov Today, 2016)
Starred links: 1 amine or outer side, 2 acyl side, 3 side chain; linkers in the order of their positions; H or OH if unused. Positions of bridges follow the written chain, without caps; N, C: chain ends. Non-standard residues stand in square brackets, D forms with d. Residues, ends and D or L forms follow the SMILES beside them. Chains are numbered I, II in the order given. *: point of attachment. Actinocin(9to1) = Cc1c2oc3c(C)ccc(C(=O)[*:1])c3nc-2c(C(=O)[*:2])c(N)c1=O; dPhe(4-NHCONH2) = NC(=O)Nc1ccc(C[C@@H](N)C(=O)O)cc1; Dihydroorotyl(S) = O=C1C[C@@H](C(=O)*)NC(=O)N1; dPhe(4-Cl) = N[C@H](Cc1ccc(Cl)cc1)C(=O)O; Phe(4-NH2) = Nc1ccc(C[C@H](N)C(=O)O)cc1; d2Nal = N[C@H](Cc1ccc2ccccc2c1)C(=O)O; Lys(iPr) = CC(C)NCCCC[C@H](N)C(=O)O; d3Pal = N[C@H](Cc1cccnc1)C(=O)O; NMeV = CN[C@H](C(=O)O)C(C)C; Sar = CNCC(=O)O

What was measured:
[1] = species on record: Homo sapiens; assay: Liver toxicity in human assessed as induction of drug-induced liver injury by measuring verified drug-induced liver injury concern status
[2] = species on record: Homo sapiens; assay: Liver toxicity in human assessed as induction of drug-induced liver injury by measuring severity class index
Wherever DILI severity class is given: key of the grades not given here.

Row | Structure (SMILES) | DILI_Concern [1] | DILI_severity_class [2]
1 | O=P1(N(CCCl)CCCl)NCCCO1 (stereo unspecified) [CYCLOPHOSPHAMIDE ANHYDROUS] | Less-Dili-Concern | 5
2 | N[C@@H]1CON=C1O [CYCLOSERINE] | Ambiguous-Dili-Concern | 3
3 | CN1CCC(=C2c3ccccc3C=Cc3ccccc32)CC1 [CYPROHEPTADINE] | Less-Dili-Concern | 7
4 | NCCS [CYSTEAMINE] | Ambiguous-Dili-Concern | 3
5 | N[C@@H](CS)C(=O)O [CYSTEINE] | Ambiguous-Dili-Concern | 3
6 | Nc1ccn([C@@H]2O[C@H](CO)[C@@H](O)[C@@H]2O)c(=O)n1 [CYTARABINE] | Most-Dili-Concern | 3
7 | CN(C)/N=N/c1[nH]cnc1C(N)=O [DACARBAZINE] | Most-Dili-Concern | 6
8 | Cc1c2oc3c(C)ccc(C(=O)N[C@@H]4C(=O)N[C@H](C(C)C)C(=O)N5CCC[C@H]5C(=O)N(C)CC(=O)N(C)[C@@H](C(C)C)C(=O)O[C@@H]4C)c3nc-2c(C(=O)N[C@@H]2C(=O)N[C@H](C(C)C)C(=O)N3CCC[C@H]3C(=O)N(C)CC(=O)N(C)[C@@H](C(C)C)C(=O)O[C@@H]2C)c(N)c1=O [DACTINOMYCIN] (I: T[dV]P[Sar][NMeV] / II: T[dV]P[Sar][NMeV]; ester I:1-I:C, II:1-II:C; linker I:N-II:N via Actinocin(9to1)) | Most-Dili-Concern | 8
9 | C#C[C@]1(O)CC[C@H]2[C@@H]3CCC4=Cc5oncc5C[C@]4(C)[C@H]3CC[C@@]21C [DANAZOL] | Most-Dili-Concern | 8
10 | O=C1CN(/N=C/c2ccc(-c3ccc([N+](=O)[O-])cc3)o2)C(O)=N1 [DANTROLENE] | Most-Dili-Concern | 8
11 | Nc1ccc(S(=O)(=O)c2ccc(N)cc2)cc1 [DAPSONE] | Less-Dili-Concern | 3
12 | CCCCCCCCCC(=O)N[C@@H](Cc1c[nH]c2ccccc12)C(=O)N[C@H](CC(N)=O)C(=O)N[C@@H](CC(=O)O)C(=O)N[C@@H]1C(=O)NCC(=O)N[C@@H](CCCN)C(=O)N[C@@H](CC(=O)O)C(=O)N[C@H](C)C(=O)N[C@@H](CC(=O)O)C(=O)NCC(=O)N[C@H](CO)C(=O)N[C@@H]([C@H](C)CC(=O)O)C(=O)N[C@@H](CC(=O)c2ccccc2N)C(=O)O[C@@H]1C [DAPTOMYCIN] | Less-Dili-Concern | 5
13 | NC(=O)C(c1ccccc1)(c1ccccc1)[C@@H]1CCN(CCc2ccc3c(c2)CCO3)C1 [DARIFENACIN] | No-Dili-Concern | 0
14 | Cc1nc(Nc2ncc(C(=O)Nc3c(C)cccc3Cl)s2)cc(N2CCN(CCO)CC2)n1.O [DASATINIB] | Less-Dili-Concern | 4
15 | COc1cccc2c1C(=O)c1c(O)c3c(c(O)c1C2=O)C[C@@](O)(C(C)=O)C[C@@H]3O[C@H]1C[C@H](N)[C@H](O)[C@H](C)O1 [DAUNORUBICIN] | No-Dili-Concern | 0
16 | Nc1ncn([C@H]2C[C@H](O)[C@@H](CO)O2)c(=O)n1 [DECITABINE] | Ambiguous-Dili-Concern | 4
17 | O=C(O)c1ccc(-n2nc(-c3ccccc3O)nc2-c2ccccc2O)cc1 [DEFERASIROX] | Most-Dili-Concern | 7
18 | CC(=O)N(O)CCCCCNC(=O)CCC(=O)N(O)CCCCCNC(=O)CCC(=O)N(O)CCCCCN [DEFEROXAMINE] | Less-Dili-Concern | 0
19 | CC(=O)N[C@H](Cc1ccc2ccccc2c1)C(=O)N[C@H](Cc1ccc(Cl)cc1)C(=O)N[C@H](Cc1cccnc1)C(=O)N[C@@H](CO)C(=O)N[C@@H](Cc1ccc(NC(=O)[C@@H]2CC(=O)NC(=O)N2)cc1)C(=O)N[C@H](Cc1ccc(NC(N)=O)cc1)C(=O)N[C@@H](CC(C)C)C(=O)N[C@@H](CCCCNC(C)C)C(=O)N1CCC[C@H]1C(=O)N[C@H](C)C(N)=O [DEGARELIX] (Ac-[d2Nal][dPhe(4-Cl)][d3Pal]S[Phe(4-NH2)](Dihydroorotyl(S))[dPhe(4-NHCONH2)]L[Lys(iPr)]P[dA]-NH2) | Ambiguous-Dili-Concern | 3
20 | CC(C)Nc1cccnc1N1CCN(C(=O)c2cc3cc(NS(C)(=O)=O)ccc3[nH]2)CC1 [DELAVIRDINE] | Ambiguous-Dili-Concern | 5
21 | CN(C)[C@@H]1C(O)=C(C(N)=O)C(=O)[C@@]2(O)C(O)=C3C(=O)c4c(O)ccc(Cl)c4[C@@H](O)[C@H]3C[C@@H]12 [DEMECLOCYCLINE] | Ambiguous-Dili-Concern | 3
22 | CNCCCN1c2ccccc2CCc2ccccc21 [DESIPRAMINE] | Ambiguous-Dili-Concern | 3
23 | Clc1ccc2c(c1)CCc1cccnc1C2=C1CCNCC1 [DESLORATADINE] | Less-Dili-Concern | 3
24 | NC(=O)CC[C@@H]1NC(=O)[C@H](Cc2ccccc2)NC(=O)[C@H](Cc2ccc(O)cc2)NC(=O)CCSSC[C@@H](C(=O)N2CCC[C@H]2C(=O)N[C@H](CCCN=C(N)N)C(=O)NCC(N)=O)NC(=O)[C@H](CC(N)=O)NC1=O [DESMOPRESSIN] | Ambiguous-Dili-Concern | 3
25 | CN(C)CC(c1ccc(O)cc1)C1(O)CCCCC1 (stereo unspecified) [DESVENLAFAXINE] | Less-Dili-Concern | 3
26 | C[C@@H]1C[C@H]2[C@@H]3CCC4=CC(=O)C=C[C@]4(C)[C@@]3(F)[C@@H](O)C[C@]2(C)[C@@]1(O)C(=O)CO [DEXAMETHASONE] | Ambiguous-Dili-Concern | 3
27 | CN(C)CC[C@@H](c1ccc(Br)cc1)c1ccccn1 [DEXBROMPHENIRAMINE] | No-Dili-Concern | 0

Row | Structure (SMILES) | DILI_Concern [1] | DILI_severity_class [2]
28 | CN(C)CC[C@@H](c1ccc(Cl)cc1)c1ccccn1 [DEXCHLORPHENIRAMINE] | No-Dili-Concern | 0
29 | Cc1c(OCC(F)(F)F)ccnc1C[S@@+]([O-])c1nc2ccccc2[nH]1 [DEXLANSOPRAZOLE] | Less-Dili-Concern | 4
30 | Cc1cccc([C@H](C)c2cnc[nH]2)c1C [DEXMEDETOMIDINE] | Ambiguous-Dili-Concern | 4
31 | COC(=O)[C@H](c1ccccc1)[C@H]1CCCCN1 [DEXMETHYLPHENIDATE] | Less-Dili-Concern | 7
32 | CC(C)(CO)[C@@H](O)C(=O)NCCCO [DEXPANTHENOL] | No-Dili-Concern | 0
33 | C[C@@H](CN1CC(=O)NC(=O)C1)N1CC(=O)NC(=O)C1 [DEXRAZOXANE] | Ambiguous-Dili-Concern | 4
34 | C[C@H](N)Cc1ccccc1 [DEXTROAMPHETAMINE] | No-Dili-Concern | 0
35 | COc1ccc2c(c1)[C@]13CCCC[C@@H]1[C@H](C2)N(C)CC3 [DEXTROMETHORPHAN] | No-Dili-Concern | 0
36 | OC[C@H]1OC(O)[C@H](O)[C@@H](O)[C@@H]1O (stereo partly specified) [DEXTROSE] | No-Dili-Concern | 0
37 | CC(=O)Nc1c(I)c(NC(C)=O)c(I)c(C(=O)O)c1I [DIATRIZOIC ACID] | No-Dili-Concern | 0
38 | CN1C(=O)CN=C(c2ccccc2)c2cc(Cl)ccc21 [DIAZEPAM] | Ambiguous-Dili-Concern | 4
39 | CC1=NS(=O)(=O)c2cc(Cl)ccc2N1 [DIAZOXIDE] | Ambiguous-Dili-Concern | 3
40 | NS(=O)(=O)c1cc(Cl)c(Cl)c(S(N)(=O)=O)c1 [DICHLORPHENAMIDE] | No-Dili-Concern | 0
41 | O=C(O)Cc1ccccc1Nc1c(Cl)cccc1Cl [DICLOFENAC] | Most-Dili-Concern | 8
42 | Cc1onc(-c2c(Cl)cccc2Cl)c1C(=O)N[C@@H]1C(=O)N2[C@@H]1SC(C)(C)[C@@H]2C(=O)O [DICLOXACILLIN] | Less-Dili-Concern | 3
43 | CCN(CC)CCOC(=O)C1(C2CCCCC2)CCCCC1 [DICYCLOMINE] | No-Dili-Concern | 0
44 | O=c1[nH]cnc2c1ncn2[C@H]1CC[C@@H](CO)O1 [DIDANOSINE] | Most-Dili-Concern | 8
45 | CCN(CC)C(C)C(=O)c1ccccc1 (stereo unspecified) [DIETHYLPROPION] | No-Dili-Concern | 0
46 | O=C(O)c1cc(-c2ccc(F)cc2F)ccc1O [DIFLUNISAL] | Most-Dili-Concern | 8
47 | C[C@H]1O[C@@H](O[C@H]2[C@@H](O)C[C@H](O[C@H]3[C@@H](O)C[C@H](O[C@H]4CC[C@@]5(C)[C@H](CC[C@@H]6[C@@H]5C[C@@H](O)[C@]5(C)[C@@H](C7=CC(=O)OC7)CC[C@]65O)C4)O[C@@H]3C)O[C@@H]2C)C[C@H](O)[C@@H]1O [DIGOXIN] | No-Dili-Concern | 0
48 | CN1C[C@H](C(=O)N[C@]2(C)O[C@@]3(O)[C@@H]4CCCN4C(=O)[C@H](Cc4ccccc4)N3C2=O)C[C@@H]2c3cccc4[nH]cc(c34)C[C@H]21 [DIHYDROERGOTAMINE] | No-Dili-Concern | 0
49 | COc1ccc([C@@H]2Sc3ccccc3N(CCN(C)C)C(=O)[C@@H]2OC(C)=O)cc1 [DILTIAZEM] | Most-Dili-Concern | 4
50 | CN(C)CCOC(c1ccccc1)c1ccccc1.Cn1c(=O)c2[nH]c(Cl)nc2n(C)c1=O [DIMENHYDRINATE] | No-Dili-Concern | 0
51 | OCC(S)CS (stereo unspecified) [DIMERCAPROL] | No-Dili-Concern | 0
52 | CN(C)CCOC(c1ccccc1)c1ccccc1 [DIPHENHYDRAMINE] | No-Dili-Concern | 0
53 | CCOC(=O)C1(c2ccccc2)CCN(CCC(C#N)(c2ccccc2)c2ccccc2)CC1 [DIPHENOXYLATE] | No-Dili-Concern | 0
